In brackets after ≈: the same amount, converted by molar mass. Like-named read-outs stand apart in the source and are kept apart here.
Assays:
[1] = Metabolite profiling of NDGA in plasma after oral administration in male CD-1 mice (LC-HRAMS, semi-quantitative); assay type: in vivo
Experimental: The dosing solution was prepared at a nominal concentration of 20 mg/mL; detailed description is shown in Appendix I. The actual concentration, established using HPLC-MS, was 84.9% of nominal (+/−8.9%) and was within the acceptable range according to the study protocol. Animal dosing and blood collection were performed according to the study protocol; details are shown in Appendix II. […] Plasma samples were prepared from blood according to the study protocol. Aliquots of the stabilized (with ascorbic acid) plasma samples were treated with MeCN (1:3 ratio) containing a mixture of internal standards (metoprolol, propranolol, and warfarin, each at 500 ng/mL) for protein precipitation. After centrifugation, clear supernatants were analyzed directly using LC-High Resolution Accurate Mass Spectrometry (HRAMS) as described below.
The samples were separated using HPLC, and two stationary phases were evaluated: ACE pentaflurophenyl C18 (Phenomenex) and dC18 (Waters). […]
Following the pre-scan, the FT analyzer is set to perform a slow survey scan at high resolution (HRMS). […] The decision event selects the two most intense ions detected in the pre-scan which are on the parent mass list. […]
1) Subtraction of the chromatogram of a control sample (solvent control in blank matrix) from the analyzed sample, leading to creation of a “SUB” file (Appendix II). […]

[2] = In vitro stability of NDGA in freshly drawn whole blood of CD-1 mice; assay type: in vitro ADME; settings: CD-1 mouse whole blood
Experimental: The aliquots were treated with MeCN (1:3 ratio) containing a mixture of internal standards (metoprolol, propranolol, and warfarin, each at 500 ng/mL) for protein precipitation. After centrifugation, supernatants were analyzed directly using LC-HRAMS as described below.

[3] = Exposure (plasma concentration by LC-MS/MS) of NDGA after oral administration in male CD-1 mice at 100 mg/kg; assay type: in vivo; settings: for concentration at 0.167 h / concentration at 0.5 h / concentration at 2 h / concentration at 4 h: male, CD-1, mouse, plasma, po, 100 mg/kg, PO 100 mg/kg; for concentration at 0.167 h: time point 0.167 hr; for concentration at 0.5 h: time point 0.50 hr; for concentration at 2 h: time point 2.0 hr; for concentration at 4 h: time point 4.0 hr
Experimental: Test compound was dosed at 100 mg/kg from 0.5% MC and 0.5% NaCMC in DI water in separate groups. Analytical stock solutions (1 mg/mL of the free drug) were prepared in DMSO. Standards were made from independently prepared stock solutions of the test compound. Standards and QCs were prepared in male CD-1 mouse plasma containing K2EDTA as an anticoagulant with 10% of 0.1M ascorbic acid in water. Standards were prepared at concentrations of 1000, 500, 100, 50, 10, 5, 1, and 0.5 ng/mL by serial dilution. Standards were treated identically to the study samples. Plasma samples were manually extracted using acetonitrile precipitation. All samples were thawed on ice, and kept on ice during preparation. […] [table] • Flow Rate: 300 μL/min • Injection Volume: 10 μL • Run Time: 4.5 min • Temperature: ambient • Autosampler Wash: #1: 1:1:1 (v:v:v) water:acetonitrile:isopropanol with 0.2% formic acid • #2: 50:50 (v:v) methanol:water [table] […] All data are expressed as ng/mL of the free drug. Samples that were below the limit of quantitation were not used in the calculation of averages. Plasma concentrations versus time data are plotted in FIGS. 24 and 25.

[4] = Solubility of NDGA in intestinal fluids; assay type: physicochemical; settings: fassgf or other biorelevant
H1975, A427, A549 cells = experiment: Cell survival/proliferation (CyQuant) of NSCLC cell lines in 10% serum from untreated mice spiked with drug; assay type: cell-based, human; settings: 72 h
Experimental: The CyQuant™ assay (Invitrogen) may be used to differentiate antioxidant activity from anti-proliferative activity. Briefly, the assay is based on dye fluorescence enhancement upon binding to cellular nucleic acids. Cells are lysed by addition of a buffer containing the CyQUANT™-GR dye; there are no washing steps, growth medium changes or long incubations. The resulting fluorescence is proportional to the number of cells in the sample and is measured directly using the TD-700 fluorometer equipped with a fluorescein filter kit. The CyQUANT™ assay can detect much lower cell numbers than Neutral Red or methylene blue assays. […] Thus, cells can be frozen prior to assaying; time course assays are facile and data obtained from samples taken at widely different time intervals can be directly compared. […] Cell number differences were measured using the CyQuant® assay (Invitrogen). H1975, A427, A549 cells were seeded at 1×10^4 cells/well in a 96 well plate and incubated overnight at 37° C. […] The plates were incubated for 72 h at 37° C. and the relative cell number per well was determined using the CyQuant® reagent. Fluorescence was measured using a Molecular Devices plate reader.

A427 cells = experiment: Cell number (CyQuant) after culture in 10% serum from mice orally administered 300 mg/Kg drug, A427; assay type: cell-based, human; settings: A427, 72 h
Experimental: (§1) The plates were incubated for 72 h at 37° C. and the relative cell number per well was determined using the CyQuant® reagent. Fluorescence was measured using a Molecular Devices plate reader. […] Serum from five animals was pooled, mixed with culture medium at a concentration of 10% and cells incubated for 72 hours. Cell number was then determined using the CyQuant® assay. […] Differences in cell number for cells cultured in 10% serum was compared by t-test. P values are: A427, p=0.009; A549, p=0.133; and […], p=0.744.

A549 cells = experiment: Cell number (CyQuant) after culture in 10% serum from mice orally administered 300 mg/Kg drug, A549; assay type: cell-based, human; settings: A549, 72 h
Experimental: as §1

[5] = 0.5% MC in DI water, group average
[6] = 0.5% MC in DI water, group average, read-out: Average plasma concentration
[7] = 0.5% NaCMC in DI water, group average
[8] = 0.5% NaCMC in DI water, group average, read-out: Average plasma concentration

AUC ([1]; mouse plasma, 300 mg/kg PO NDGA, trapezoidal approximation, 5-240 min): 28.5 peak area ratio* min
Stability of NDGA in whole blood ([2]; time 0 minutes): 100
Stability of NDGA in whole blood ([2]; time 15 minutes): 7.2
Putative metabolites detected upon incubation in whole blood in vitro ([2]; up to 60 minutes): No putative metabolites were detected
Stability in whole blood sample (in words) ([2]; possibly impacted by poor recovery): appears to be unstable
concentration at 0.167 h [3, 5]: 43.4 ng/mL
concentration at 0.5 h [3, 6]: 44.2 ng/mL
concentration at 2 h [3, 5]: 3.08 ng/mL
concentration at 4 h [3, 6]: 3.19 ng/mL
concentration at 0.167 h [3, 7]: 70.8 ng/mL
concentration at 0.5 h [3, 8]: 49.6 ng/mL
concentration at 0.5 h ([3]; 0.5% NaCMC in DI water, individual mice #183-187, read-out: Individual plasma concentration Conc.): 40.9 ng/mL
concentration at 2 h [3, 7]: 1.83 ng/mL
concentration at 4 h [3, 8]: 2.75 ng/mL
concentration at 4 h ([3]; 0.5% NaCMC in DI water, individual mice #183-186, read-out: Individual plasma concentration Conc.): 3.24 ng/mL
solubility [4]: ~8 µg/mL (≈ 26.5 µM)
Compound: CC(Cc1ccc(O)c(O)c1)C(C)Cc1ccc(O)c(O)c1 (stereo not shown) [NDGA, nordihydroguaiaretic acid]
Adverse effects in the dosed animals ([1]; male CD-1 mice, 300 mg/kg PO, 0.5% NaCMC in water): No adverse effects were observed
Observations and adverse reactions ([3]; 100 mg/kg PO, one mouse (#187) died ~5 min after 30 min sample, possibly stress): No other adverse effects were observed
Concentration above which reduced cell proliferation was observed (H1975, A427, A549 cells; 10% mouse serum spiked with drug): > 10 µM
Cell number reduced (H1975, A427, A549 cells; maximum concentration tested, 10% mouse serum, all cell lines averaged): 33%
Number of cells after culture in 10% serum from treated mice (in words) (A427 cells): decrease was statistically significant
Number of cells after culture in 10% serum from treated mice (in words) (A549 cells): not significant at the 0.05 level

Reference: US9834575B2, “Cancer therapy” (TriAct Therapeutics, Inc., priority 2013, dated 2017)
